Data taken from patent US20120202856A1, “SUBSTITUTED BENZIMDAZOLE DERIVATIVES USEFUL AS TRPM8 RECEPTOR MODULATORS” (priority 2011, published 2012).
Several values for one entry are separate records, joined by “and”; a condition that tells them apart may be missing. Identical values can stand only once. Counter-ions that a name gives are not always drawn. Like-named read-outs stand apart in the source and are kept apart here.

Molecular target: T1, canine TRPM8 (Canis lupus familiaris, UniProt Q1A7N1)
T1 construct: expressed in transfected cells
Experiment: In Vitro Canine TRPM8 Functional Assay (intracellular Ca2+ fluorescence, icilin activation, HEK293 cells)
Type: cell-based
Details: for IC50: HEK293 cells expressing canine TRPM8, icilin activation, individually measured values (batches/salt forms), read-out: IC50 (nM), in vitro TRP M8 Activity
In short: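 Inhibition of icilin-evoked calcium influx measured by Calcium 3 fluorescence (FLIPR or FDSS) in canine TRPM8 HEK293 cells. After basal subtraction, data expressed as percent of maximum; quadruplicate means fitted by sigmoidal dose–response to give IC50.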

[1] = HEK293, 0.2 μM test compound, individually measured values, read-out: % Inh (%) @0.2 μM, in vitro TRP M8 Activity
[2] = HEK293, read-out: % Inh (%) @0.2 μM, in vitro TRP M8 Activity, 0.2 μM test compound, individually measured values

T1 sequence (Q1A7N1 1-1104): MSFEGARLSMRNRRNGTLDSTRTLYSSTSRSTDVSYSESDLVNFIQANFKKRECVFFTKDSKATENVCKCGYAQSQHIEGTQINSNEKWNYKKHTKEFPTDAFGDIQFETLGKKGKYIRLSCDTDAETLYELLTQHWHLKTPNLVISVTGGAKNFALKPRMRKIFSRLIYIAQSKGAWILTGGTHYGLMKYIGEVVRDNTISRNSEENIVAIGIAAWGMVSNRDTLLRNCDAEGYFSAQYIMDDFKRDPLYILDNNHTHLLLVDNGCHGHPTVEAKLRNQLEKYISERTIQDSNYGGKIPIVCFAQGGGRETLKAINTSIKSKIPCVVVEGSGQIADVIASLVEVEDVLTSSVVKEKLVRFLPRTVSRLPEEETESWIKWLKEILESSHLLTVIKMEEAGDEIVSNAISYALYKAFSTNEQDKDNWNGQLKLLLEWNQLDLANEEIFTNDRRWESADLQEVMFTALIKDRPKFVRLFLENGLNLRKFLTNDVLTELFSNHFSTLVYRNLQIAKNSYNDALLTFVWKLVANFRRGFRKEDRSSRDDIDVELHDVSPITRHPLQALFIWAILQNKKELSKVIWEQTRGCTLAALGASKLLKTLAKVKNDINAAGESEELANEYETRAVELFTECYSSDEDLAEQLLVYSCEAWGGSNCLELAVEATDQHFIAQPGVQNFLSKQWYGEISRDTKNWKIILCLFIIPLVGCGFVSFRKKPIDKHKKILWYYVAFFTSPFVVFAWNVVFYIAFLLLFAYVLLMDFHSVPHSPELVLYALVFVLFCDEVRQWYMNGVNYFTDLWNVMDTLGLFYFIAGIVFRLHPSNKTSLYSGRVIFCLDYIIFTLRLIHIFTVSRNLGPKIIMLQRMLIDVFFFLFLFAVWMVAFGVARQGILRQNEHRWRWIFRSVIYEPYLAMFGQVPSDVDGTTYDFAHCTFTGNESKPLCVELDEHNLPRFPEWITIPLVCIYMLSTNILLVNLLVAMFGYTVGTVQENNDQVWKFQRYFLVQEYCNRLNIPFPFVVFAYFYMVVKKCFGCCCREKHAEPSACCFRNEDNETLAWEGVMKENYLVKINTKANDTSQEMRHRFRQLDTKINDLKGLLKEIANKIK

Compound | IC50 | inhibition at 0.2 µM [1] [%] | other results
Cn1nc(C(C)(C)C)cc1-c1nc2cc(-c3ccccc3Cl)ccc2[nH]1 [Compound 59, 2-(5-tert-Butyl-2-methyl-2H-pyrazol-3-yl)-5-(2-chloro-phenyl)-1H-benzimidazole trifluoroacetic acid salt] | 8.3 nM | – | –
CC(C)Cc1cc(-c2nc3cc(-c4ccccc4C(F)(F)F)ccc3[nH]2)on1 [Compound 22, 2-(3-Isobutylisoxazol-5-yl)-5-(2-trifluoromethylphenyl)-1H-benzimidazole hydrochloride] | 32 nM | – | –
CCc1ccccc1-c1ccc2[nH]c(-c3cc(C(C)(C)C)nn3C)nc2c1 [Compound 56, 2-(5-tert-Butyl-2-methyl-2H-pyrazol-3-yl)-5-(2-ethyl-phenyl)-1H-benzimidazole trifluoroacetic acid salt] | 10.7 nM | – | –
Cn1nc(C(C)(C)C)c(Cl)c1-c1nc2cc(-c3c(F)cccc3F)cc(C(F)(F)F)c2[nH]1 [Compound 124, 2-(5-tert-Butyl-4-chloro-2-methyl-2H-pyrazol-3-yl)-5-(2,6-difluoro-phenyl)-7-trifluoromethyl-1H-benzimidazole hydrochloride] | 7.3 nM and 4.4 nM | 99 | –
Cn1nc(C2(C)CC2)cc1-c1nc2cc(-c3ccccc3C(F)(F)F)ccc2[nH]1 [Compound 52, 2-[2-Methyl-5-(1-methylcyclopropyl)-2H-pyrazol-3-yl]-5-(2-trifluoromethylphenyl)-1H-benzimidazole sodium salt] | 17.6 nM | – | –
Cn1nc(C(C)(C)C)c(C#N)c1-c1nc2cc(-c3ccccc3F)cc(Cl)c2[nH]1 [Compound 167, 3-tert-Butyl-5-[7-chloro-5-(2-fluoro-phenyl)-1H-benzimidazol-2-yl]-1-methyl-1H-pyrazole-4-carbonitrile sodium salt] | 9.8 nM | 100 | –
Cc1c(C(C)(C)C)nn(C)c1-c1nc2cc(-c3ccccc3C(F)(F)F)cc(Cl)c2[nH]1 [Compound 135, 2-(5-tert-Butyl-2,4-dimethyl-2H-pyrazol-3-yl)-7-chloro-5-(2-trifluoromethyl-phenyl)-1H-benzimidazole hydrochloride] | 4 nM and 6.9 nM | 99 | –
CC(C)(C)c1cc(-c2nc3cc(-c4ccccc4C(F)(F)F)cc(C(F)(F)F)c3[nH]2)on1 [Compound 142, 2-(3-tert-Butyl-isoxazol-5-yl)-7-trifluoromethyl-5-(2-trifluoromethyl-phenyl)-1H-benzimidazole sodium salt] | 3 nM and 3.3 nM | – | inhibition at 0.2 µM [2]: 99%
Cn1nc(C(C)(C)C)c(Cl)c1-c1nc2cc(-c3c(F)cccc3C#N)cc(C(F)(F)F)c2[nH]1 [Compound 146, 2-[2-(5-tert-Butyl-4-chloro-2-methyl-2H-pyrazol-3-yl)-7-trifluoromethyl-1H-benzimidazol-5-yl]-3-fluoro-benzonitrile hydrochloride] | 12.2 nM and 15 nM | 100 | –
Cn1nc(C(C)(C)C)c(Cl)c1-c1nc2cc(-c3ccccc3OC(F)(F)F)ccc2[nH]1 [Compound 51, 2-(5-tert-Butyl-4-chloro-2-methyl-2H-pyrazol-3-yl)-5-(2-trifluoromethoxyphenyl)-1H-benzimidazole sodium salt] | 27 nM | – | –
Cn1nc(C(C)(C)C)c(C#N)c1-c1nc2cc(-c3c(F)cccc3F)cc(C(F)(F)F)c2[nH]1 [Compound 151, 3-tert-Butyl-5-[5-(2,6-difluoro-phenyl)-7-trifluoromethyl-1H-benzimidazol-2-yl]-1-methyl-1H-pyrazole-4-carbonitrile sodium salt] | 4.2 nM and 6 nM and 3.8 nM | – | –
CC(CO)n1nc(C(C)(C)C)cc1-c1nc2cc(-c3ccccc3C(F)(F)F)ccc2[nH]1 (stereo not drawn) [Compound 101, 2-{3-tert-Butyl-5-[5-(2-trifluoromethylphenyl)-1H-benzimidazol-2-yl]-pyrazol-1-yl}-propan-1-ol hydrochloride] | – | 33 | –
CCOc1ccccc1-c1ccc2[nH]c(-c3cc(C(C)C)no3)nc2c1 [Compound 6, 2-(3-Isopropylisoxazol-5-yl)-5-(2-ethoxyphenyl)-1H-benzimidazole sodium salt] | 64.4 nM | – | –
Cc1nc(C(C)(C)C)oc1-c1nc2cc(-c3ccccc3OC(F)(F)F)cc(Cl)c2[nH]1 [Compound 183, 2-(2-tert-Butyl-4-methyl-oxazol-5-yl)-7-chloro-5-(2-trifluoromethoxy-phenyl)-1H-benzimidazole hydrochloride] | – | 4 | –
CC(C)(C)Cc1cc(-c2nc3ccc(-c4ccccc4OC(F)(F)F)cc3[nH]2)on1 [Compound 21, 2-[3-(2,2-Dimethylpropyl)-isoxazol-5-yl]-6-(2-trifluoromethoxyphenyl)-1H-benzimidazole hydrochloride] | 29 nM | – | –
CC(C)(C)c1cc(-c2nc3cc(-c4ccccc4C(F)(F)F)ccc3[nH]2)n(Cc2ccccc2)n1 [Compound 48, 2-(5-tert-Butyl-2-benzyl-2H-pyrazol-3-yl)-5-(2-trifluoromethylphenyl)-1H-benzimidazole sodium salt] | 18.4 nM | – | –

Compound | IC50 | inhibition at 0.2 µM [1] [%] | other results
COc1ccc(F)cc1-c1ccc2[nH]c(-c3cc(C(C)(C)C)no3)nc2c1 [Compound 105, 2-(3-tert-Butyl-isoxazol-5-yl)-5-(5-fluoro-2-methoxy-phenyl)-1H-benzimidazole hydrochloride] | 16.4 nM | – | –
Cn1nc(C(C)(C)C)cc1-c1nc2cc(-c3ccccc3F)ccc2[nH]1 [Compound 57, 2-(5-tert-Butyl-2-methyl-2H-pyrazol-3-yl)-5-(2-fluoro-phenyl)-1H-benzimidazole trifluoroacetic acid salt] | 14.6 nM and 20.7 nM | – | –
Cc1oc(C(C)(C)C)nc1-c1nc2cc(-c3ccccc3Cl)cc(Cl)c2[nH]1 [Compound 163, 2-(2-tert-Butyl-5-methyl-oxazol-4-yl)-7-chloro-5-(2-chloro-phenyl)-1H-benzimidazole hydrochloride] | – | 62 | –
Cc1nc(C(C)(C)C)oc1-c1nc2cc(-c3ccccc3Cl)cc(C(F)(F)F)c2[nH]1 [Compound 179, 2-(2-tert-Butyl-4-methyl-oxazol-5-yl)-5-(2-chloro-phenyl)-7-trifluoromethyl-1H-benzimidazole hydrochloride] | – | 18 | –
Cc1c(C(C)(C)C)noc1-c1nc2cc(-c3c(F)cccc3C(F)(F)F)ccc2[nH]1 [Compound 111, 2-(3-tert-Butyl-4-methyl-isoxazol-5-yl)-5-(2-fluoro-6-trifluoromethyl-phenyl)-1H-benzimidazole hydrochloride] | 10.1 nM | – | –
CC(C)(C)c1cc(-c2nc3cc(-c4c(F)cccc4OC(F)(F)F)cc(C(F)(F)F)c3[nH]2)on1 [Compound 145, 2-(3-tert-Butyl-isoxazol-5-yl)-5-(2-fluoro-6-trifluoromethoxy-phenyl)-7-trifluoromethyl-1H-benzimidazole sodium salt] | 3.7 nM and 8.1 nM | – | inhibition at 0.2 µM [2]: 100%
Cn1nc(C2(C)CC2)cc1-c1nc2cc(-c3ccccc3OC(F)(F)F)ccc2[nH]1 [Compound 53, 2-[2-Methyl-5-(1-methylcyclopropyl)-2H-pyrazol-3-yl]-5-(2-trifluoromethoxyphenyl)-1H-benzimidazole sodium salt] | 41.7 nM | – | –
CC(C)c1cc(-c2nc3cc(-c4cccc(C(F)(F)F)c4)ccc3[nH]2)on1 [Compound 7, 2-(3-Isopropylisoxazol-5-yl)-5-(3-trifluoromethylphenyl)-1H-benzimidazole sodium salt] | – | 10 | –
Cc1ccccc1-c1ccc2[nH]c(-c3cc(C(C)(C)C)no3)nc2c1 [Compound 65, 2-(3-tert-Butyl-isoxazol-5-yl)-5-o-tolyl-1H-benzimidazole trifluoroacetic acid salt] | 15.5 nM | – | –
Cn1nc(C(C)(C)C)c(Cl)c1-c1nc2cc(-c3ccccc3F)cc(C(F)(F)F)c2[nH]1 [Compound 127, 2-(5-tert-Butyl-4-chloro-2-methyl-2H-pyrazol-3-yl)-5-(2-fluoro-phenyl)-7-trifluoromethyl-1H-benzimidazole hydrochloride] | 11.5 nM and 6.3 nM | 99 | –
Cc1oc(C(C)(C)C)nc1-c1nc2cc(-c3c(F)cccc3C(F)(F)F)cc(C(F)(F)F)c2[nH]1 [Compound 158, 2-(2-tert-Butyl-5-methyl-oxazol-4-yl)-5-(2-fluoro-6-trifluoromethyl-phenyl)-7-trifluoromethyl-1H-benzimidazole hydrochloride] | – | 72 | –
Cn1nc(C(C)(C)C)c(C#N)c1-c1nc2cc(-c3ccccc3F)cc(C(F)(F)F)c2[n-]1.[Na+] [Compound 147] | – | – | % Inh (%) @0.2 μM, in vitro TRP M8 Activity (0.2 μM test compound, individually measured values, sodium salt, 0.2 µM): 98%
Cc1c(C(C)(C)C)noc1-c1nc2cc(-c3c(F)cccc3OC(F)(F)F)ccc2[nH]1 [Compound 110, 2-(3-tert-Butyl-4-methyl-isoxazol-5-yl)-5-(2-fluoro-6-trifluoromethoxy-phenyl)-1H-benzimidazole hydrochloride] | 14.3 nM | – | –
Cc1c(C(C)(C)C)nn(C)c1-c1nc2cc(-c3c(F)cccc3F)cc(C(F)(F)F)c2[nH]1 [Compound 122, 2-(5-tert-Butyl-2,4-dimethyl-2H-pyrazol-3-yl)-5-(2,6-difluoro-phenyl)-7-trifluoromethyl-1H-benzimidazole hydrochloride] | 5.5 nM | – | –
CC(C)(C)Cc1cc(-c2nc3ccc(-c4ccccc4C(F)(F)F)cc3[nH]2)on1 [Compound 20, 2-[3-(2,2-Dimethylpropyl)isoxazol-5-yl]-6-(2-trifluoromethylphenyl)-1H-benzimidazole hydrochloride] | 19 nM | – | –
CC(C)(C)c1nnc(-c2nc3cc(-c4ccccc4C(F)(F)F)cc(C(F)(F)F)c3[nH]2)o1 [Compound 190, 2-(5-tert-Butyl-[1,3,4]oxadiazol-2-yl)-7-trifluoromethyl-5-(2-trifluoromethyl-phenyl)-1H-benzimidazole sodium salt] | 30 nM | – | –
